Reference: patent US20080193576A1, “Antiphlogistic and analgesic composition for topical use in a region of an animal locomotive system” (priority 2007, published 2008)

Assay: tests of the topical composition carried out on persons
Assay type: in vivo
Conditions: compared as hydrogel-soluble NSAID component at about 2-10% of the composition

For `COC(=O)c1ccccc1O` [methyl salicylate], the “efficacy of the non-steroidal anti-inflammatory agent within the inventive composition” value was “most efficacious”.
